# pIC50: −log10 of the molar value.
# Target: T1, viral kinase pUL-97 (Human cytomegalovirus, UniProt P16788)
# T1 construct: The pUL-97 gene was cloned into a baculovirus vector; GST (glutathione S-transferase) (N); made in house; host or cells: Sf9 insect cells, baculovirus
# Assay: UL97 kinase assay on Immobilon plate
# Type: biochemical
# Conditions: inhibition of UL 97 kinase activity; class by IC50 / % inhibition at 10 or 100 μM; read-out: Activity Class [A, B, C]
# How it was run: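 Compound was titrated into a radiometric reaction of Sf9-expressed GST-UL97 kinase, incubated 1 h at 30 °C in Tris-HCl pH 7.5/MnCl2/DTT buffer before EDTA stop. MBP substrate and ATP (3 μM in the added assay buffer) were supplied with γ-[33P]ATP. Labelled product bound to Immobilon filter was washed and counted by scintillation.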
# T1 sequence (P16788 whole entry): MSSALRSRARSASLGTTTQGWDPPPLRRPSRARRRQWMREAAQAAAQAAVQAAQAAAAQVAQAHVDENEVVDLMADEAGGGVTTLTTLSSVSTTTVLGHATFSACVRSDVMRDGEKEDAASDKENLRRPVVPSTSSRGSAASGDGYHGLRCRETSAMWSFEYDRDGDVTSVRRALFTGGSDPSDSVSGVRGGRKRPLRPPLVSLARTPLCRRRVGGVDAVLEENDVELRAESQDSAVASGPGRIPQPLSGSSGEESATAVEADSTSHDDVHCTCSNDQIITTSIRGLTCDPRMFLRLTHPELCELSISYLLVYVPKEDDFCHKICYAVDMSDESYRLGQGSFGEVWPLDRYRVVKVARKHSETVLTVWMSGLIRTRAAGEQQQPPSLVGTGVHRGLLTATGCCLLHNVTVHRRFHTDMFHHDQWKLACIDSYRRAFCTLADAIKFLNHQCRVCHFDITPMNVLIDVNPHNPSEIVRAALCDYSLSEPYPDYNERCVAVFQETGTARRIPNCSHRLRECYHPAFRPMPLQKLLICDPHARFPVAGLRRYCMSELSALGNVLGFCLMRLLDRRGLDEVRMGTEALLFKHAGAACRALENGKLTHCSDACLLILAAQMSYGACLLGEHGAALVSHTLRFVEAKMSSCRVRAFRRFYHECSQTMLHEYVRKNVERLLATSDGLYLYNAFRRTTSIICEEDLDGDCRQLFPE
row,Structure (SMILES),pIC50
1,"Cc1ccc(-c2cncc(N3CCN(c4cccc(C(F)(F)F)c4)CC3)n2)cc1 [compound 155, 6′-p-Tolyl-4-(3-trifluoromethyl-phenyl)-3,4,5,6-tetrahydro-2H-[1,2′]bipyrazinyl]",4.00 to 5.00
2,"Cc1cccc(-c2cncc(N3CCN(c4cccc(C(F)(F)F)c4)CC3)n2)c1C [compound 156, 6′-(2,3-Dimethyl-phenyl)-4-(3-trifluoromethyl-phenyl)-3,4,5,6-tetrahydro-2H-[1,2′]bipyrazinyl]",4.00 to 5.00
3,"Fc1ccc(-c2cncc(N3CCN(c4cccc(C(F)(F)F)c4)CC3)n2)cc1Cl [compound 157, 6′-(3-Chloro-4-fluoro-phenyl)-4-(3-trifluoromethyl-phenyl)-3,4,5,6-tetrahydro-2H-[1,2′]bipyrazinyl]",4.00 to 5.00
4,"FC(F)(F)c1cccc(N2CCN(c3cncc(-c4csc5ccccc45)n3)CC2)c1 [compound 158, 6′-Benzo[b]thiophen-3-yl-4-(3-trifluoromethyl-phenyl)-3,4,5,6-tetrahydro-2H-[1,2′]bipyrazinyl]",4.00 to 5.00
5,"COc1ccc(-c2cncc(N3CCN(c4cccc(C(F)(F)F)c4)CC3)n2)cc1OC [compound 161, 6′-(3,4-Dimethoxy-phenyl)-4-(3-trifluoromethyl-phenyl)-3,4,5,6-tetrahydro-2H-[1,2′]bipyrazinyl]",4.00 to 5.00
6,"CC(=O)c1cccc(-c2cncc(N3CCN(c4cccc(C(F)(F)F)c4)CC3)n2)c1 [compound 162, 1-{3-[4-(3-Trifluoromethyl-phenyl)-3,4,5,6-tetrahydro-2H-[1,2′]bipyrazinyl-6′-yl]-phenyl}-ethanone]",4.00 to 5.00
7,"FC(F)(F)c1cc(-c2cncc(N3CCN(c4ccncc4)CC3)n2)cc(C(F)(F)F)c1 [compound 164, 6′-(3,5-Bis-trifluoromethyl-phenyl)-4-pyridin-4-yl-3,4,5,6-tetrahydro-2H-[1,2′]bipyrazinyl]",4.00 to 5.00
8,"CSc1ccccc1-c1cncc(N2CCN(c3ccncc3)CC2)n1 [compound 166, 6′-(2-Methylsulfanyl-phenyl)-4-pyridin-4-yl-3,4,5,6-tetrahydro-2H-[1,2′]bipyrazinyl]",4.00 to 5.00
9,"COc1ccc(N2CCN(c3cncc(-c4ccc(Oc5ccccc5)cc4)n3)CC2)cc1OC [compound 168, 4-(3,4-Dimethoxy-phenyl)-6′-(4-phenoxy-phenyl)-3,4,5-6-tetrahydro-2H-[1,2′]bipyrazinyl]",4.00 to 5.00
10,"COc1ccc(N2CCN(c3cncc(-c4cc(C)cc(C)c4)n3)CC2)cc1OC [compound 170, 4-(3,4-Dimethoxy-phenyl)-6′-(3,5-dimethyl-phenyl)-3,4,5,6-tetrahydro-2H-[1,2′]bipyrazinyl]",4.00 to 5.00
11,"COc1ccc(N2CCN(c3cncc(-c4cccc(OC)c4OC)n3)CC2)cc1OC [compound 171, 4-(3,4-Dimethoxy-phenyl)-6′-(2,3-dimethoxy-phenyl)-3,4,5,6-tetrahydro-2H-[1,2′]bipyrazinyl]",4.00 to 5.00
12,"COc1ccc(N2CCN(c3cncc(-c4cccc(C#N)c4)n3)CC2)cc1OC [compound 173, 3-[4-(3,4-Dimethoxy-phenyl)-3,4,5,6-tetrahydro-2H-[1,2′]bipyrazinyl-6′-yl]-benzonitrile]",4.00 to 5.00
13,"COc1ccc(N2CCN(c3cncc(-c4ccccc4Oc4ccccc4)n3)CC2)cc1OC [compound 174, 4-(3,4-Dimethoxy-phenyl)-6′-(2-phenoxy-phenyl)-3,4,5,6-tetrahydro-2H-[1,2′]bipyrazinyl]",4.00 to 5.00

# Now from value to compound:
row,pIC50,Structure (SMILES)
1,4.00 to 5.00,"Fc1ccc(N2CCN(c3cncc(-c4ccc(F)c(Cl)c4)n3)CC2)c(F)c1 [compound 145, 6′-(3-Chloro-4-fluoro-phenyl)-4-(2,4-difluoro-phenyl)-3,4,5,6-tetrahydro-2H-[1,2′]bipyrazinyl]"
2,4.00 to 5.00,"CC(=O)c1ccc(N2CCN(c3cncc(-c4ccccc4C(C)=O)n3)CC2)cc1 [compound 146, 1-{2-[4-(4-Acetyl-phenyl)-3,4,5,6-tetrahydro-2H-[1,2′]bipyrazinyl-6′-yl]-phenyl}-ethanone]"
3,4.00 to 5.00,"CC(=O)c1ccc(N2CCN(c3cncc(-c4cccc(C)c4)n3)CC2)cc1 [compound 147, 1-[4-(6′-m-Tolyl-2,3,5,6-tetrahydro-[1,2′]bipyrazinyl-4-yl)-phenyl]-ethanone]"
4,5.00 to 6.00,"CC(=O)c1ccc(N2CCN(c3cncc(-c4ccc(C)cc4)n3)CC2)cc1 [compound 148, 1-[4-(6′-p-Tolyl-2,3,5,6-tetrahydro-[1,2′]bipyrazinyl-4-yl)-phenyl]-ethanone]"
5,4.00 to 5.00,"CC(=O)c1ccc(N2CCN(c3cncc(-c4cccc5ccccc45)n3)CC2)cc1 [compound 149, 1-[4-(6′-Naphthalen-1-yl-2,3,5,6-tetrahydro-[1,2′]bipyrazinyl-4-yl)-phenyl]-ethanone]"
6,4.00 to 5.00,CC(=O)c1ccc(N2CCN(c3cncc(-c4cccc(C)c4C)n3)CC2)cc1 [compound 150]
7,4.00 to 5.00,CC(=O)c1ccc(N2CCN(c3cncc(-c4ccc(F)c(Cl)c4)n3)CC2)cc1 [compound 151]
8,5.00 to 6.00,"CC(=O)c1ccc(N2CCN(c3cncc(-c4csc5ccccc45)n3)CC2)cc1 [compound 152, 1-[4-(6′-Benzo[b]thiophen-3-yl-2,3,5,6-tetrahydro-[1,2′]bipyrazinyl-4-yl)-phenyl]-ethanone]"
9,4.00 to 5.00,"CC(=O)c1ccccc1-c1cncc(N2CCN(c3cccc(C(F)(F)F)c3)CC2)n1 [compound 153, 1-{2-[4-(3-Trifluoromethyl-phenyl)-3,4,5,6-tetrahydro-2H-[1,2′]bipyrazinyl-6′-yl]-phenyl}-ethanone]"
10,4.00 to 5.00,"Cc1cccc(-c2cncc(N3CCN(c4cccc(C(F)(F)F)c4)CC3)n2)c1 [compound 154, 6′-m-Tolyl-4-(3-trifluoromethyl-phenyl)-3,4,5,6-tetrahydro-2H-[1,2′]bipyrazinyl]"
11,> 6.00,CSc1ccc(-c2cncc(N3CCN(c4ccc(C(C)=O)cc4)CC3)n2)cc1 [compound 159]
12,5.00 to 6.00,"FC(F)(F)c1cccc(N2CCN(c3cncc(-c4cc5ccccc5s4)n3)CC2)c1 [compound 160, 6′-Benzo[b]thiophen-2-yl-4-(3-trifluoromethyl-phenyl)-3,4,5,6-tetrahydro-2H-[1,2′]bipyrazinyl]"
13,5.00 to 6.00,"c1ccc(Oc2ccc(-c3cncc(N4CCN(c5ccncc5)CC4)n3)cc2)cc1 [compound 163, 6′-(4-Phenoxy-phenyl)-4-pyridin-4-yl-3,4,5,6-tetrahydro-2H-[1,2′]bipyrazinyl]"
14,5.00 to 6.00,"Cc1cc(C)cc(-c2cncc(N3CCN(c4ccncc4)CC3)n2)c1 [compound 165, 6′-(3,5-Dimethyl-phenyl)-4-pyridin-4-yl-3,4,5,6-tetrahydro-2H-[1,2′]bipyrazinyl]"
15,5.00 to 6.00,"N#Cc1cccc(-c2cncc(N3CCN(c4ccncc4)CC3)n2)c1 [compound 167, 3-(4-Pyridin-4-yl-3,4,5,6-tetrahydro-2H-[1,2′]bipyrazinyl-6′-yl)-benzonitrile]"
16,5.00 to 6.00,"COc1ccc2cc(-c3cncc(N4CCN(c5ccc(OC)c(OC)c5)CC4)n3)ccc2c1 [compound 169, 4-(3,4-Dimethoxy-phenyl)-6′-(6-methoxy-naphthalen-2-yl)-3,4,5,6-tetrahydro-2H-[1,2′]bipyrazinyl]"
17,5.00 to 6.00,"COc1ccc(N2CCN(c3cncc(-c4ccc(C(F)(F)F)cc4)n3)CC2)cc1OC [compound 172, 4-(3,4-Dimethoxy-phenyl)-6′-(4-trifluoromethyl-phenyl)-3,4,5,6-tetrahydro-2H-[1,2′]bipyrazinyl]"

# Source: US20080194574A1, “Pyrazine Derivatives As Effective Compounds Against Infectious Diseases” (AXXIMA PHARMACEUTICALS AG, priority 2003, published 2008)
